Like-named read-outs stand apart in the source and are kept apart here.
Legend:
IMP-1 = IMP-1 (Serratia marcescens, UniProt P52699); experiment: biochemical; format: biochemical; details: read-out: IMP-1 IC50
[1] = test system: Serratia marcescens expressing IMP-1 (CL5741); experiment: Antibiotic potentiation activity: synergistic concentration (MITC95) with imipenem, OD600 growth; format: cell-based
Procedure, shortened: (§1)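 Growth after 22–24 h at 35 °C is measured spectrophotometrically for bacteria incubated with compound plus imipenem (4 μg/ml in-well, or 1 μg/ml). Cells come from overnight agar colonies resuspended in saline and diluted 1:100 in 1.1× CAMHB.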

[2] = test system: Klebsiella pneumoniae expressing VIM-1 (IHMA599644); experiment: as above; format: cell-based
Procedure, shortened: as §1

[3] = test system: Escherichia coli expressing NDM-1 (CLB30016); experiment: as above; format: cell-based
Procedure, shortened: as §1

VIM-1 = VIM-1 (Pseudomonas aeruginosa (strain ATCC 15692 / DSM 22644 / CIP 104116 / JCM 14847 / LMG 12228 / 1C / PRS 101 / PAO1), UniProt A0A0F7KYQ8); experiment: Enzyme activity: determination of IC50, fluorescence assay with CCF2-FA substrate (VIM-1); format: biochemical
NDM-1 = NDM-1 (Klebsiella pneumoniae, UniProt C7C422); experiment: biochemical; format: biochemical; details: read-out: NDM-1 IC50
[4] = IMP-1 enzyme, CCF2-FA substrate
[5] = Serratia marcescens CL5741 (IMP-1), 95% growth inhibition
[6] = Klebsiella pneumoniae IHMA599644 (VIM-1), 95% growth inhibition
[7] = (CLB30016, NDM-1), 95% growth inhibition
[8] = VIM-1 IC50, VIM-1 enzyme, CCF2-FA substrate
[9] = NDM-1 enzyme, CCF2-FA substrate
[10] = fluorescence assay with CCF2-FA substrate
[11] = CL5741 (IMP-1), 95% inhibition of bacterial growth
[12] = IHMA599644 (VIM-1), 95% inhibition of bacterial growth
[13] = CLB30016 (NDM-1), 95% inhibition of bacterial growth
[14] = fluorescence assay with CCF2-FA substrate, read-out: VIM-1 IC50
[15] = IMP-1 enzyme, CCF2-FA fluorescence assay
[16] = Serratia marcescens expressing IMP-1 (CL5741), 95% growth inhibition
[17] = Klebsiella pneumoniae expressing VIM-1 (IHMA599644), 95% growth inhibition
[18] = Escherichia coli expressing NDM-1 (CLB30016), 95% growth inhibition
[19] = VIM-1 IC50, VIM-1 enzyme, CCF2-FA fluorescence assay
[20] = NDM-1 enzyme, CCF2-FA fluorescence assay
[21] = VIM-1 enzyme, CCF2-FA substrate, read-out: VIM-1 IC50
[22] = concentration giving 95% inhibition of bacterial growth

Sequence of NDM-1 (C7C422 whole entry, looked up, species assumed): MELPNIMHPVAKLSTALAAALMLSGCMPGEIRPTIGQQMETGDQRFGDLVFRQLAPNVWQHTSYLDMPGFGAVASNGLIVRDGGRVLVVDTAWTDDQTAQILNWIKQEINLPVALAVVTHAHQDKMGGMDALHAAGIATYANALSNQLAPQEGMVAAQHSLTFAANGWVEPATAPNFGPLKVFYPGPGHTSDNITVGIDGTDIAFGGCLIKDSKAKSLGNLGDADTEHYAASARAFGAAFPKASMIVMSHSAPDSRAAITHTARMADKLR
Sequence of IMP-1 (P52699 whole entry, looked up): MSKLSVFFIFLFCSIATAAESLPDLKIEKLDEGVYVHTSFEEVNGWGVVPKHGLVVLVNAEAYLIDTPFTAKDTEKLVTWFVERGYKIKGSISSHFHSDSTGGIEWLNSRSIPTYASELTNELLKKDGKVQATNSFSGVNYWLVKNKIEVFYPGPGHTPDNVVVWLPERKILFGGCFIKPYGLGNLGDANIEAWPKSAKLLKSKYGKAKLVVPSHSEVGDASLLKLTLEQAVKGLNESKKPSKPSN

SMILES | IC50 (IMP-1; [4]) [nM] | Serratia marcescens MITC95 [1, 5] [µM] | Klebsiella pneumoniae MITC95 [2, 6] [µM] | Escherichia coli MITC95 [3, 7] [µM] | IC50 (NDM-1; [9]) [nM] | IC50 (VIM-1; [21]) [nM] | further results
Nc1nc2ccc(-c3ccc(C(F)(F)F)c(S(N)(=O)=O)c3-c3nnn[nH]3)cc2s1 [Example 549, 3-(2-amino-1,3-benzothiazol-6-yl)-2-(1H-tetrazol-5-yl)-6-(trifluoromethyl)benzenesulfonamide] | 0.472 | 3.125 | 6.25 | 1.563 | 0.256 | – | IC50 (VIM-1; [8]): 0.0629 nM
NS(=O)(=O)c1c(C(F)(F)F)ccc(N2CCC(C3CCNCC3)CC2)c1-c1nnn[nH]1 [Example 779, 3-[4-(4-piperidyl)-1-piperidyl]-2-(1H-tetrazol-5-yl)-6-(trifluoromethyl) benzenesulfonamide] | – | – | – | – | – | – | IC50 (IMP-1; [10]): 6.7 nM; Serratia marcescens MITC95 [1, 11]: 0.3906 µM; Klebsiella pneumoniae MITC95 [2, 12]: 2.344 µM; Escherichia coli MITC95 [3, 13]: 1.172 µM; IC50 (VIM-1; [14]): 0.11 nM; IC50 (NDM-1; [10]): 6.42 nM
CC(=O)NC1CCN(c2ccc(-c3cccc(S(N)(=O)=O)c3-c3nnn[nH]3)cn2)C1 (stereo not drawn) [Example 623, N-[1-[5-[3-sulfamoyl-2-(1H-tetrazol-5-yl)phenyl]-2-pyridyl]pyrrolidin-3-yl]acetamide] | 79.5 | 6.25 | 150 | 1.953 | 7.94 | – | IC50 (VIM-1; [8]): 207 nM
NS(=O)(=O)c1cccc(-c2ccc(CNCc3ccncn3)cc2)c1-c1nnn[nH]1 [Example 377, 4′-{[(pyrimidin-4-ylmethyl)amino]methyl}-2-(1H-tetrazol-5-yl)biphenyl-3-sulfonamide] | – | – | – | – | – | – | IC50 (IMP-1; [15]): 73.7 nM; Serratia marcescens MITC95 [1, 16]: 3.125 µM; Klebsiella pneumoniae MITC95 [2, 17]: 200 µM; Escherichia coli MITC95 [3, 18]: 1.563 µM; IC50 (VIM-1; [19]): 256 nM; IC50 (NDM-1; [20]): 5.27 nM
NS(=O)(=O)c1c(C(F)(F)F)ccc(C2CCCc3sc(C(=O)O)nc32)c1-c1nnn[nH]1 (stereo not drawn) [Example 510, 4-(3-Sulfamoyl-2-(1H-tetrazol-5-yl)-4-(trifluoromethyl)phenyl)-4,5,6,7-tetrahydrobenzo[d]thiazole-2-carboxylic acid] | 47.4 | 200 | >200 | 50 | 3.42 | 12.8 | –
NC1CCCC(N[C@H]2CC[C@H](c3ccc(C(F)(F)F)c(S(N)(=O)=O)c3-c3nnn[nH]3)CC2)C1 (stereo partly drawn) [Example 687, 3-{4-[(3-aminocyclohexyl)amino]cyclohexyl}-2-(1H-tetrazol-5-yl)-6-(trifluoromethyl)benzene sulfonamide] | 94.3 | 6.25 | 25 | 3.125 | 25.2 | – | IC50 (VIM-1; [8]): 27.8 nM
NS(=O)(=O)c1cccc(-c2ccc(CN3CCC(C(=O)O)C3)cc2)c1-c1nnn[nH]1 (stereo not drawn) [Example 343, 1-{[3′-sulfamoyl-2′-(1H-tetrazol-5-yl)biphenyl-4-yl]methyl}pyrrolidine-3-carboxylic acid] | – | – | – | – | – | – | IC50 (IMP-1; [15]): 373 nM; Serratia marcescens MITC95 [1, 16]: 9.375 µM; Klebsiella pneumoniae MITC95 [2, 17]: 100 µM; Escherichia coli MITC95 [3, 18]: 1.563 µM; IC50 (VIM-1; VIM-1 enzyme, CCF2-FA fluorescence assay, read-out: VIM-1 IC50): 1180 nM; IC50 (NDM-1; [20]): 24.7 nM
Nc1ccc(-c2ccc(C[C@H]3CC[C@H](N)CC3)c(S(N)(=O)=O)c2-c2nnn[nH]2)cn1 [Example 575, 6-(((1r,4r)-4-aminocyclohexyl)methyl)-3-(6-aminopyridin-3-yl)-2-(1H-tetrazol-5-yl)benzenesulfonamide] | 59.5 | 3.125 | 6.25 | 0.3906 | 3.15 | 6.98 | –
N=C(N)N1CCC2(CCC(c3ccc(C(F)(F)F)c(S(N)(=O)=O)c3-c3nnn[nH]3)CC2)CC1 [Example 826, 9-[3-sulfamoyl-2-(1H-tetrazol-5-yl)-4-(trifluoromethyl)phenyl]-3-azaspiro[5.5]undecane-3-carboxamidine] | – | – | – | – | – | – | IC50 (IMP-1; [10]): 1.45 nM; Serratia marcescens MITC95 [1, 11]: 3.125 µM; Klebsiella pneumoniae MITC95 [2, 12]: 25 µM; Escherichia coli MITC95 [3, 13]: 1.563 µM; IC50 (VIM-1; VIM-1 IC50, fluorescence assay with CCF2-FA substrate): 1.36 nM; IC50 (NDM-1; [10]): 0.491 nM
NS(=O)(=O)c1c(C(F)(F)F)ccc(-c2ccc3c(c2)CCNC3)c1-c1nnn[nH]1 [Example 721, 3-(1,2,3,4-tetrahydroisoquinolin-6-yl)-2-(1H-tetrazol-5-yl)-6-(trifluoromethyl)benzenesulfon-amide] | 9.18 | 6.25 | 1.563 | 6.25 | 3.02 | 0.807 | –
NCCCc1ccc(-c2ccc(C(F)(F)F)c(S(N)(=O)=O)c2-c2nnn[nH]2)cc1 [Example 735, 4′-(3-aminopropyl)-2-(1H-tetrazol-5-yl)-4-(trifluoromethyl)biphenyl-3-sulfonamide] | 1.7 | 3.125 | 6.25 | 3.125 | 3.03 | 0.388 | –
NCc1ncc(CCc2ccc(C(F)(F)F)c(S(N)(=O)=O)c2-c2nn[nH]n2)cc1N [Example 513, 3-(2-(5-Amino-6-(aminomethyl)pyridin-3-yl)ethyl)-2-(2H-tetrazol-5-yl)-6-(trifluoromethyl)benzenesulfonamide] | 3.61 | 9.375 | 9.375 | 12.5 | 9.35 | 1.18 | –
Cn1c(-c2ccc(-c3ccc(C(F)(F)F)c(S(N)(=O)=O)c3-c3nnn[nH]3)cc2)cnc1N.O=C(O)C(F)(F)F [Example 560, 3-[4-(2-amino-3-methyl-imidazol-4-yl)phenyl]-2-(1H-tetrazol-5-yl)-6-(trifluoromethyl)benzenesulfonamide] | 0.898 | 3.125 | 6.25 | 6.25 | 0.727 | 0.212 | –
Nc1ncc2ccc(-c3cccc(S(N)(=O)=O)c3-c3nnn[nH]3)cc2n1 [Example 420, 3-(2-Aminoquinazolin-7-yl)-2-(1H-tetrazol-5-yl)benzenesulfonamide] | – | – | – | – | – | – | IC50 (IMP-1; [15]): 217 nM; Serratia marcescens MITC95 [1, 16]: 9.375 µM; Klebsiella pneumoniae MITC95 [2, 17]: 18.75 µM; Escherichia coli MITC95 [3, 18]: 1.563 µM; IC50 (VIM-1; [19]): 30.7 nM; IC50 (NDM-1; [20]): 4.74 nM
NC1CCC(c2ccc(CC3CCNCC3)c(S(N)(=O)=O)c2-c2nn[nH]n2)CC1 (stereo not drawn) [Example 839, 3-(4-aminocyclohexyl)-6-(piperidin-4-ylmethyl)-2-(2H-tetrazol-5-yl)benzenesulfonamide] | – | – | – | – | – | – | IC50 (IMP-1; [10]): 359 nM; Serratia marcescens MITC95 [1, 11]: 6.25 µM; Klebsiella pneumoniae MITC95 [2, 12]: 6.25 µM; Escherichia coli MITC95 [3, 13]: 3.125 µM; IC50 (VIM-1; [14]): 19.3 nM; IC50 (NDM-1; [10]): 56.9 nM
NS(=O)(=O)c1cccc(CCc2ccccn2)c1-c1nnn[nH]1 [Example 144, 3-(2-pyridin-2-ylethyl)-2-(1H-tetrazol-5-yl)benzenesulfonamide] | – | – | – | – | – | – | IC50 (IMP-1; [10]): 4500 nM; Serratia marcescens expressing IMP-1 (CL5741) MITC95 [1, 22]: 200 µM; Klebsiella pneumoniae expressing VIM-1 (IHMA 599644) MITC95 [2, 22]: >200 µM; Escherichia coli expressing NDM-1 (CLB 30016) MITC95 [3, 22]: 3.125 µM; IC50 (VIM-1; [14]): 1540 nM; IC50 (NDM-1; [10]): 121 nM
